Measurements from patent publication US8815834B2, “Use of dendrimers to stimulate cell growth” (Centre National de la Recherche Scientifique, priority 2004, dated 2014).

Test system: human NK cells
Assay: Culture of PBMC with dendrimer and IL2: amplification and phenotype of NK cells
Settings: in particular at a concentration of 20 μM; FIG. 4B
Experimental: Peripheral blood mononuclear cells (PBMC) obtained from a healthy adult human donor by centrifugation over a density gradient (Ficoll-Hypaque, Amersham Pharmacia Biotech, Upsalla, SWEDEN) are cultured in sterile cell culture flasks at a concentration of 1.5 million cells per ml of culture medium of the RPMI 1640 type, 25 mM Hepes/Ultraglutamine 1 (Cambrex Bio Science, Verviers, BELGIUM) supplemented with: • i) 1 mM sodium pyruvate (Invitrogen Corporation, Paisley, UNITED KINGDOM) • ii) 100 μg/ml of streptomycin and 100 U/ml of penicillin (Cambrex Bio Science, Verviers, BELGIUM); • iii) 10% by volume of foetal calf serum (Invitrogen Corporation, Paisley, UNITED KINGDOM) decomplemented for 30 minutes at 56° C. (FCS); • iv) 20 μM of GC1 dendrimer solubilized at a concentration of 2 mM in sterile non-pyrogenic PBS; • v) 200 U/ml of human recombinant IL2 (Sanofi-Synthelabo, Paris, FRANCE) is added to the culture medium thus produced. […]
The PBMCs obtained from a healthy adult human donor are cultured for 15 days with GC1 then counted by total counting of the living cells (Ntot). […]
The NK cells obtained starting with PBMCs from healthy donors cultured under the conditions described previously are counted, at the start of the experiment then at the end of 3.5 weeks of culture. […]

SMILES: O=P(O)(O)CN(CCc1ccc(O)cc1)CP(=O)(O)O [phenol-azabisphosphonic monomer derived from tyramine]
- Immunostimulant properties on the in vitro amplification of human NK cells: inactive
